According to patent US20220288231A1, “METHODS AND COMPOSITIONS FOR REDUCING GENE OR NUCLEIC ACID THERAPY-RELATED IMMUNE RESPONSES” (Generation Bio Co., priority 2019, published 2022):
“Also recorded” adds a separate entry of the source. Where a name gives a salt, the structure may show the parent alone.

Columns and labels:
[1] = tested on: IRF-inducible luciferase reporter in RAW-ISG cells; assay: IFN reporter assay in RAW-ISG cells; format: cell-based, murine; conditions: for inhibitory effects on murine ISG system / induction of IRF: 0.1 μM, 1.0 μM and 10 μM, ceDNA
Method: Finally, IFN reporter assays were conducted in RAW-ISG cells. RAW-ISG cells are generated from the murine macrophage cell line by stable integration of an interferon regulatory factor (IRF)-inducible luciferase reporter construct. […] Another potent TKI compound selected for this assay was BMS-986165 which is a known antagonist of TYK2.

THP1-ISG cells = assay: THP1-ISG cell viability assay (ATP activity and LDH release); conditions: 10 μM, 1.0 μM and 0.1 μM; 24 hours
[2] = In vivo tolerability and body weight with TKI and ceDNA; set-up: species or system mice
Method: The immunosuppressant selected for initial in vivo cytokine/chemokine panel assays were afatinib, brigatinib, dacomitinib, dasatinib, saracatinib, fostamatinib, cerdulatinib, ruxolitinib, and cobimetinib. […] The high and low dose concentrations immunosuppressants are as follows: afatinib (H: 200 mg/kg/day; L: 25 mg/kg/day), brigatinib (H: 50 mg/kg/day; L: 10 mg/kg/day), dacomitinib (H: 30 mg/kg/day; L: 10 mg/kg/day), dasatinib (H: 30 mg/kg/day; L: 10 mg/kg/day), saracatinib (H: 50 mg/kg/day; L: 10 mg/kg/day), fostamatinib (H: 500 mg/kg/day; L: 100 mg/kg/day), cerdulatinib (H: 30 mg/kg/day; L: 5 mg/kg/day), ruxolitinib (H: 300 mg/kg/day; L: 60 mg/kg/day) and cobimetinib (H: 10 mg/kg/day; L: 3 mg/kg/day). Formulations were mixed by pipetting prior to administration to distribute particulates of oral gavage suspension. TKI or vehicle for Groups 3-24 were dosed on Days -2, -1, 0 and 1 by oral gavage at 10 mL/kg. TKI for Group 25 were dosed on Days -2, -1, 0 and 1 by oral gavage at 20 mL/kg. TKI for Group 26 was dosed on Days -2, -1, 0 and 1 by intraperitoneal (IP) administration at 20 mL/kg. […] Otherwise, TKIs were administered at approximately the same time each day ([…] dosed at 0.2 mg/kg on Day 0 for all experimental groups by intravenous administration via lateral tail vein. […] Polycytidylic acid potassium salt (PolyC) and […] […] Body weights for all animal were recorded.

[3] = tested on: serum proinflammatory cytokines and chemokines in response to ceDNA; assay: In vivo cytokine/chemokine panel after ceDNA (Construct A) dosing; set-up: species or system mice; conditions: for serum IP-10 level: repeat experiment; for cytokines expression after ceDNA dosing: LNP: Construct A at 0.2 mg/Kg
Method: The immunosuppressant selected for initial in vivo cytokine/chemokine panel assays were afatinib, brigatinib, dacomitinib, dasatinib, saracatinib, fostamatinib, cerdulatinib, ruxolitinib, and cobimetinib. […] The high and low dose concentrations immunosuppressants are as follows: afatinib (H: 200 mg/kg/day; L: 25 mg/kg/day), brigatinib (H: 50 mg/kg/day; L: 10 mg/kg/day), dacomitinib (H: 30 mg/kg/day; L: 10 mg/kg/day), dasatinib (H: 30 mg/kg/day; L: 10 mg/kg/day), saracatinib (H: 50 mg/kg/day; L: 10 mg/kg/day), fostamatinib (H: 500 mg/kg/day; L: 100 mg/kg/day), cerdulatinib (H: 30 mg/kg/day; L: 5 mg/kg/day), ruxolitinib (H: 300 mg/kg/day; L: 60 mg/kg/day) and cobimetinib (H: 10 mg/kg/day; L: 3 mg/kg/day). Formulations were mixed by pipetting prior to administration to distribute particulates of oral gavage suspension. TKI or vehicle for Groups 3-24 were dosed on Days -2, -1, 0 and 1 by oral gavage at 10 mL/kg. TKI for Group 25 were dosed on Days -2, -1, 0 and 1 by oral gavage at 20 mL/kg. TKI for Group 26 was dosed on Days -2, -1, 0 and 1 by intraperitoneal (IP) administration at 20 mL/kg. […] Otherwise, TKIs were administered at approximately the same time each day ([…] dosed at 0.2 mg/kg on Day 0 for all experimental groups by intravenous administration via lateral tail vein. Animals were monitored continuously while under anesthesia, during recovery and until mobile. […] Polycytidylic acid potassium salt (PolyC) and […] (Construct A) were used as controls. […] Body weights for all animal were recorded.

[4] = tested on: immune response to ceDNA (Construct A: hAAT-Luciferase); assay: ceDNA dose escalation study with TKI; format: in vivo; conditions: 2 mg/kg ceDNA formulated in LNP; ruxolitinib 300 mg/kg
Method: An in vivo study with dose escalation of ceDNA was conducted to evaluate the effect of ceDNA at a high dose in the presence of the TKI (ruxolitinib at a high dose of 300 mg/kg and fostamatinib at a high dose of 500 mg/kg). In this study, four experimental groups were dosed with increasing doses of 0.2 mg/kg, 0.5 mg/kg, 1 mg/kg, or 2 mg/kg of ceDNA (Construct A: hAAT-Luciferase) formulated in LNPs.

immune response to ceDNA = format: in vivo, mice; conditions: −0.5 h and 5 h regimen compared to −48 hr, −24 h, −1.5 h and 24 h regimen; 300 mg/kg
Source text: FIG. 14 depicts two different dosing time arrangements of TKI treatment. […]. […]

[5] = tested on: luciferase expression of ceDNA (Construct A); assay: In-life imaging (IVIS) of ceDNA luciferase expression; format: in vivo, mice; conditions: day 6; compared among TKI groups
Method: Expression levels of ceDNA as detected by luciferase (IVIS for luciferase) was measured at day 6, 14, 21, 28, and 35 in all groups (FIG. 8). Polycytidylic acid potassium salt (PolyC) and […] ceDNA (Construct A) were used as controls. Both polyC and Construct A were formulated in LNP and used as controls for in groups in which no ceDNA was dosed to evaluate the effect of LNPs. Body weights for all animal were recorded.

[6] = 0.2 mg/kg ceDNA, blood 6 hours post dose
[7] = high dose of TKI with Construct A:LNP vehicle

Q: What does the source list for `[2H]C([2H])([2H])NC(=O)c1nnc(NC(=O)C2CC2)cc1Nc1cccc(-c2ncn(C)n2)c1OC` [BMS-986165, BMS986165 Tyk2-IN-4]?
A: inhibitory effects, ranking among more than 30 compounds tested [1]: most significant inhibitory effects; inhibitory effects on murine ISG system / induction of IRF [1]: significant inhibitory effects

Q: With `Cl.Cn1cc(-c2nc(N[C@@H]3CCCC[C@@H]3N)c(F)c3c2C(=O)NC3)cn1` [TAK-659] as the compound, how does the “toxicity in vitro (ATP activity)” value (THP1-ISG cells) read?
A: mostly non-toxic

Q: With `CN(C)C/C=C/C(=O)Nc1cc2c(Nc3ccc(F)c(Cl)c3)ncnc2cc1O[C@H]1CCOC1` [afatinib, Afatinib/ Afatinib Dimaleate] as the compound, how does the body loss ([2]; with ceDNA, particularly at a high dose) read?
A: 7-8%

Q: Which “toxicity in vitro (ATP activity)” value (THP1-ISG cells) does the source give for `c1cn2cc(-c3ccc4cn[nH]c4c3)nc(Nc3ccc(N4CCOCC4)cc3)c2n1` [entoplestinib, Entosplestinib] here?
A: mostly non-toxic

Q: With `COc1cc(Nc2ncc(F)c(Nc3ccc4c(n3)N(COP(=O)(O)O)C(=O)C(C)(C)O4)n2)cc(OC)c1OC` [fostamatinib, Fostamatinib/ Fostamatinib disodium] as the compound, how does the “inhibitory effects, ranking among more than 30 compounds tested” value [1] read?
A: most significant inhibitory effects

Q: What about the “inhibitory effects on murine ISG system / induction of IRF” value [1] of the same compound?
A: significant inhibitory effects

Q: What about the “suppressing cytokines and chemokine levels” value ([3]; 0.2 mg/kg ceDNA) of the same compound?
A: stood out

Q: What about the “type I and type II IFNs responses” value ([3]; 0.2 mg/kg ceDNA) of the same compound?
A: effectively attenuated

Q: What about the “serum interferon-α (IFN-α) level” value [3, 6] of the same compound?
A: successfully exerted immunosuppressive effects

Q: What about the “serum interferon-γ (IFN-γ) level” value [3, 6] of the same compound?
A: successfully exerted immunosuppressive effects

Q: And the “serum interleukin-6 (IL-6) level” value [3, 6]?
A: successfully exerted immunosuppressive effects

Q: And the “serum interleukin-18 (IL-18) level” value [3, 6]?
A: successfully exerted immunosuppressive effects

Q: And the “serum tumor necrosis factor-α (TNF-α) level” value [3, 6]?
A: successfully exerted immunosuppressive effects

Q: And the “serum IP-10 level” value ([3]; 0.2 mg/kg ceDNA)?
A: successfully exerted immunosuppressive effects

Q: What about the “cytokines expression after ceDNA dosing” value [3] of the same compound?
A: drastically reduce

Q: Which “toxicity in vitro (ATP activity)” value (THP1-ISG cells) does the source give for `Cc1ccc(NC(=O)c2ccc(CN3CCN(C)CC3)cc2)cc1Nc1nccc(-c2cccnc2)n1` [imatinib, Imatinib/ Imatinib mesylate] here?
A: mostly non-toxic

Q: For `N#CC[C@H](C1CCCC1)n1cc(-c2ncnc3[nH]ccc23)cn1` [ruxolitinib, Ruxolitinib/ Ruxolitinib phosphate/ S-ruxolitinib], which body weight change ([2]; TKI with 0.2 mg/kg ceDNA) is on record?
A: a certain level of weight gains

Q: And the tolerability [4]?
A: well tolerated

Q: And the “inhibitory effects, ranking among more than 30 compounds tested” value [1]?
A: most significant inhibitory effects

Q: And the “inhibitory effects on murine ISG system / induction of IRF” value [1]?
A: significant inhibitory effects

Q: And the “serum MCP-1 level” value ([3]; 0.2 mg/kg ceDNA)?
A: significant reduction

Q: What about the “serum MIP-1α (CCL3) level” value ([3]; 0.2 mg/kg ceDNA) of the same compound?
A: significant reduction

Q: What about the “serum MIP-1β (CCL4) level” value ([3]; 0.2 mg/kg ceDNA) of the same compound?
A: significant reduction

Q: And the “serum Rantes (CCL5) level” value ([3]; 0.2 mg/kg ceDNA)?
A: significant reduction

Q: What about the “suppressing cytokines and chemokine levels” value ([3]; 0.2 mg/kg ceDNA) of the same compound?
A: stood out

Q: What about the “type I and type II IFNs responses” value ([3]; 0.2 mg/kg ceDNA) of the same compound?
A: effectively attenuated

Q: And the “serum interferon-α (IFN-α) level” value [3, 6]?
A: significant reductions; also recorded: successfully exerted immunosuppressive effects

Q: And the “serum interferon-γ (IFN-γ) level” value [3, 6]?
A: significant reductions; also recorded: successfully exerted immunosuppressive effects

Q: And the “serum interleukin-6 (IL-6) level” value [3, 6]?
A: significant reductions; also recorded: successfully exerted immunosuppressive effects

Q: And the “serum interleukin-18 (IL-18) level” value [3, 6]?
A: significant reductions; also recorded: successfully exerted immunosuppressive effects

Q: What about the serum level [3, 6] of the same compound?
A: significant reductions

Q: What about the “serum tumor necrosis factor-α (TNF-α) level” value [3, 6] of the same compound?
A: significant reductions; also recorded: successfully exerted immunosuppressive effects

Q: What about the “serum IP-10 level” value ([3]; 0.2 mg/kg ceDNA) of the same compound?
A: successfully exerted immunosuppressive effects

Q: What about the “cytokines expression after ceDNA dosing” value [3] of the same compound?
A: drastically reduce

Q: And the “serum IFN-α level” value [3, 7]?
A: no detectable

Q: And the “serum IFN-γ level” value [3, 7]?
A: no detectable

Q: And the “serum IL-6 level” value [3, 7]?
A: no detectable

Q: What about the immunosuppression (immune response to ceDNA) of the same compound?
A: improved immunosuppression

Q: What about the “ceDNA transgene expression levels” value [5] of the same compound?
A: highest level

Q: For `CNC(=O)c1cc(Oc2ccc(NC(=O)Nc3ccc(Cl)c(C(F)(F)F)c3)cc2)ccn1` [sorafinib, Sorafenib], which “toxicity in vitro (ATP activity)” value (THP1-ISG cells) is on record?
A: mostly non-toxic

Q: With `CCN(CC)CCNC(=O)c1c(C)[nH]c(/C=C2\C(=O)Nc3ccc(F)cc32)c1C` [sunitinib, Sunitinib] as the compound, how does the “toxicity in vitro (ATP activity)” value (THP1-ISG cells) read?
A: mostly non-toxic
